# Measurements from patent publication US12578350B2, “System and method for coagulation and platelet function related data collection and analysis” (FloBio LLC, priority 2024, dated 2026).
# Tested on: fibrin accumulation
# Experiment: Microfluidic whole blood flow assay over collagen/tissue factor reaction zone, fibrin signal, drug spiked in vitro
# Assay type: cell-based, human
# Conditions: blood sample treated with different doses, in relation to HBS control; 37° C. and 21° C.; FIGS. 17C-17D
# Source text: The drug in question can be mixed with a small bolus of patient blood outside the device (in vitro), and the drug spiked blood then analyzed on the system. […] Fresh whole blood (used within minutes of venous draw), AF594 fibrinogen (fibrinogen from human plasma, Alexa FluorTM 594 conjugate) and platelet MCA2588A488 (mouse anti-human CD61, Alexa FluorTM 488 conjugate) can be added to the device 100 and the direct fluorescence signals can be analyzed. […] The result is the production of direct fluorescent signals in green (platelets) and red (fibrin) where the measured fluorescent intensity (FI) directly correlates with the accumulation of platelets and fibrin. The fluorescent signal intensity can be directly measured at each clot site over time to produce clot response curves for both fibrin and platelets. Fluorescence signal (intensity) can be extracted for each clot and plotted for each assay condition. Two signals are generated in the test as fluorescence intensity (FI) for fibrin and platelets accumulating in the region of interest on the device. […] The optimal time at which to select data for analyses is generally determined to be the time of the maximum rate of stable signal development, which typically corresponds to the half-max or T50 time point of the assay.
smiles,measurement,value
O=C(NC[C@H]1CN(c2ccc(N3CCOCC3=O)cc2)C(=O)O1)c1ccc(Cl)s1 [Rivaroxaban],fibrin signal with increasing dose,decreases
